Laboratory results reported in US20240336601A1 (Chulalongkorn University, priority 2020, published 2024).

Assays:
[1] = molecular target: T1, PD-1/PD-L1 interaction (Homo sapiens, UniProt Q9NZQ7); test: PD-1/PD-L1 blockage cell-based bioassay (Jurkat NFAT luciferase / CHO-PDL1 co-culture); conditions: Jurkat NFAT cells co-cultured with CHO-PDL1 cells, 6 h, luminescence
T1 construct: expressed in transfected cells

[2] = molecular target: interaction between PD-1 and PD-L1 (Homo sapiens, UniProt Q9NZQ7); test: PD-1/PD-L1 protein-protein interaction assay (ALPHA); format: binding; conditions: 2 nM His-tagged human PD-L1, 0.6 nM PD-1-Fc, AlphaScreen
interaction between PD-1 and PD-L1, sequence (Q9NZQ7 19-238 limits assumed): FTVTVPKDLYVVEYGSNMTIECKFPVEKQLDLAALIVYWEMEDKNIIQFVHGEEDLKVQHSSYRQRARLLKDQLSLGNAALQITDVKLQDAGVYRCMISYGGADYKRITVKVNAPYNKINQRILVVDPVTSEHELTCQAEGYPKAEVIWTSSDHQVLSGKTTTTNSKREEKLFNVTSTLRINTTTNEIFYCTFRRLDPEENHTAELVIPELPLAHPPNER

T1 sequence (Q9NZQ7 19-290): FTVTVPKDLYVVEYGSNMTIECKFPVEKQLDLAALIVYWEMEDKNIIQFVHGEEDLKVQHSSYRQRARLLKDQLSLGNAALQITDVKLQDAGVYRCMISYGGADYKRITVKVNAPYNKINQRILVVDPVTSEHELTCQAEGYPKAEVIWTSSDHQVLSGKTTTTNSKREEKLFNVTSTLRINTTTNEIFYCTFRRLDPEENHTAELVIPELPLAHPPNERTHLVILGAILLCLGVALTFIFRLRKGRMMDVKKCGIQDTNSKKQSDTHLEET

Row | IC50 [1] | IC50 [2] | SMILES
1 | < 200 nM | < 1 nM | COc1cc(-n2ncc3c(-c4cccc(-c5ccc(CNCCO)c(OC)n5)c4Cl)cccc32)cc(OC)c1CNCCO [Example 129, 2-(((6-(2-chloro-3-(1-(4-(((2-hydroxyethyl)amino)methyl)-3,5-dimethoxyphenyl)-1H-indazol-4-yl)phenyl)-2-methoxypyridin-3-yl)methyl)amino)ethanol]
2 | 201 to 2000 nM | < 1 nM | CCOC(=O)[C@@H](NCc1c(OC)cc(-n2ncc3c(-c4cccc(-c5ccc(CNC[C@@H]6CCC(=O)N6)c(OC)n5)c4Cl)cccc32)cc1OC)[C@@H](C)O [Example 146, (2S,3R)-ethyl 2-((4-(4-(2-chloro-3-(6-methoxy-5-(((((S)-5-oxopyrrolidin-2-yl)methyl)amino)methyl)pyridin-2-yl)phenyl)-1H-indazol-1-yl)-2,6-dimethoxybenzyl)amino)-3-hydroxybutanoate]
3 | < 200 nM | < 1 nM | COc1cc(-n2ncc3c(-c4cccc(-c5ccc(CNC[C@@H]6CCC(=O)N6)c(OC)n5)c4Cl)cccc32)cc(OC)c1CNCC1(C(=O)O)CC1 [Example 66, (S)-1-(((4-(4-(2-chloro-3-(6-methoxy-5-((((5-oxopyrrolidin-2-yl)methyl)amino)methyl)pyridin-2-yl)phenyl)-1H-indazol-1-yl)-2,6-dimethoxybenzyl)amino)methyl)cyclopropanecarboxylic acid]
4 | < 200 nM | < 1 nM | COc1cc(-n2ncc3c(-c4cccc(-c5ccc(CNC[C@@H](C)O)c(OC)n5)c4Cl)cccc32)cc(OC)c1CNC[C@@H](C)O [Example 127, (R)-1-(((6-(2-chloro-3-(1-(4-((((R)-2-hydroxypropyl)amino)methyl)-3,5-dimethoxyphenyl)-1H-indazol-4-yl)phenyl)-2-methoxypyridin-3-yl)methyl)amino)propan-2-ol]
5 | < 200 nM | < 1 nM | COc1cc(-n2ncc3c(-c4cccc(-c5ccc(CN[C@H]6C[C@@H](O)C6)c(OC)n5)c4Cl)cccc32)cc(OC)c1CN1CC(C)(C(N)=O)C1 [Example 105, 1-(4-(4-(2-chloro-3-(5-(((cis-3-hydroxycyclobutyl)amino)methyl)-6-methoxypyridin-2-yl)phenyl)-1H-indazol-1-yl)-2,6-dimethoxybenzyl)-3-methylazetidine-3-carboxamide]
6 | < 200 nM | 1 to 10 nM | COc1cc(-n2ncc3c(-c4cccc(-c5ccc(CN[C@H]6C[C@@H](O)C6)c(OC)n5)c4Cl)cccc32)cc(OC)c1CN1CC(C)(O)C1 [Example 102, 1-(4-(4-(2-chloro-3-(5-(((cis-3-hydroxycyclobutyl)amino)methyl)-6-methoxypyridin-2-yl)phenyl)-1H-indazol-1-yl)-2,6-dimethoxybenzyl)-3-methylazetidin-3-ol]
7 | 201 to 2000 nM | 1 to 10 nM | COc1cc(-n2ncc3c(-c4cccc(-c5ccc(C6=NCCN6)c(OC)n5)c4Cl)cccc32)cc(OC)c1CN1CC(C)(C(N)=O)C1 [Example 114, 1-(4-(4-(2-chloro-3-(5-(4,5-dihydro-1H-imidazol-2-yl)-6-methoxypyridin-2-yl)phenyl)-1H-indazol-1-yl)-2,6-dimethoxybenzyl)-3-methylazetidine-3-carboxamide]
8 | < 200 nM | < 1 nM | COC(=O)[C@@H](CO)NCc1c(OC)cc(-n2ncc3c(-c4cccc(-c5ccc(CNC[C@@H]6CCC(=O)N6)c(OC)n5)c4Cl)cccc32)cc1OC [Example 134, methyl (4-(4-(2-chloro-3-(6-methoxy-5-(((((S)-5-oxopyrrolidin-2-yl)methyl)amino)methyl)pyridin-2-yl)phenyl)-1H-indazol-1-yl)-2,6-dimethoxybenzyl)-D-serinate]
9 | > 2000 nM | 1 to 10 nM | COc1cc(-n2ccc3c(-c4cccc(-c5ccc(CN6CC(C)(O)C6)c(OC)n5)c4Cl)cccc32)cc(OC)c1CN1CC(C)(O)C1 [Example 28]
10 | < 200 nM | < 1 nM | COc1cc(-n2ncc3c(-c4cccc(-c5nc6cc(CN7CC[C@@H](C(=O)O)C7)cc(C#N)c6o5)c4C)cccc32)cc(OC)c1CN1CC[C@H](O)C1 [Example 155, (R)-1-((7-cyano-2-(3-(1-(4-(((S)-3-hydroxypyrrolidin-1-yl)methyl)-3,5-dimethoxyphenyl)-1H-indazol-4-yl)-2-methylphenyl)benzo[d]oxazol-5-yl)methyl)pyrrolidine-3-carboxylic acid]
11 | 201 to 2000 nM | 1 to 10 nM | CCOC(=O)[C@@H](NCc1c(OC)cc(-n2ncc3c(-c4cccc(-c5ccc(CN6CC7(CNC(=O)C7)C6)c(OC)n5)c4Cl)cccc32)cc1OC)[C@@H](C)O [Example 145, Ethyl (4-(4-(2-chloro-3-(6-methoxy-5-((7-oxo-2,6-diazaspiro[3.4]octan-2-yl)methyl)pyridin-2-yl)phenyl)-1H-indazol-1-yl)-2,6-dimethoxybenzyl)-L-threoninate]
12 | 201 to 2000 nM | 1 to 10 nM | COc1cc(-n2ncc3c(-c4cccc(-c5ccc(CN[C@H]6C[C@@H](O)C6)c(OC)n5)c4Cl)cccc32)ncc1CNC[C@@H](C)O [Example 122, cis-3-(((6-(2-chloro-3-(1-(5-((((R)-2-hydroxypropyl)amino)methyl)-4-methoxypyridin-2-yl)-1H-indazol-4-yl)phenyl)-2-methoxypyridin-3-yl)methyl)amino)cyclobutanol]
13 | < 200 nM | 1 to 10 nM | CCOC(=O)C1(C)CN(Cc2c(OC)cc(-n3ncc4c(-c5cccc(-c6ccc(CNC[C@@H]7CCC(=O)N7)c(OC)n6)c5Cl)cccc43)cc2OC)C1 [Example 151, ethyl (S)-1-(4-(4-(2-chloro-3-(6-methoxy-5-((((5-oxopyrrolidin-2-yl)methyl)amino)methyl)pyridin-2-yl)phenyl)-1H-indazol-1-yl)-2,6-dimethoxybenzyl)-3-methylazetidine-3-carboxylate]
14 | 201 to 2000 nM | < 1 nM | COc1cc(-n2ccc3c(-c4cccc(-c5ccc(CNC[C@@H]6CCC(=O)N6)c(OC)n5)c4Cl)cccc32)cc(OC)c1CNCC(C)(C)C(N)=O [Example 39]
15 | < 200 nM | < 1 nM | COc1cc(-n2ncc3c(-c4cccc(-c5ccc(CN6CC7(CNC(=O)C7)C6)c(OC)n5)c4Cl)cccc32)cc(OC)c1CN[C@H]1C[C@@H](O)C1 [Example 97, 2-((6-(2-chloro-3-(l-(4-(((cis-3-hydroxycyclobutyl)amino)methyl)-3,5-dimethoxyphenyl)-1H-indazol-4-yl)phenyl)-2-methoxypyridin-3-yl)methyl)-2,6-diazaspiro[3.4]octan-7-one]
16 | 201 to 2000 nM | 1 to 10 nM | COc1cc(-n2ncc3c(-c4cccc(-c5ccc(CN6CC7(CNC(=O)C7)C6)c(OC)n5)c4Cl)cccc32)cc(OC)c1CN1CC2(CNC(=O)C2)C1 [Example 90, 2-(4-(4-(2-chloro-3-(6-methoxy-5-((7-oxo-2,6-diazaspiro[3.4]octan-2-yl)methyl)pyridin-2-yl)phenyl)-1H-indazol-1-yl)-2,6-dimethoxybenzyl)-2,6-diazaspiro[3.4]octan-7-one]
17 | < 200 nM | < 1 nM | COc1cc(-n2ncc3c(-c4cccc(-c5ccc(CN6CC(C)(C(=O)NC7CC7)C6)c(OC)n5)c4Cl)cccc32)cc(OC)c1CNC[C@@H]1CCC(=O)N1 [Example 92, (S)-1-((6-(2-chloro-3-(1-(3,5-dimethoxy-4-((((5-oxopyrrolidin-2-yl)methyl)amino)methyl)phenyl)-1H-indazol-4-yl)phenyl)-2-methoxypyridin-3-yl)methyl)-N-cyclopropyl-3-methylazetidine-3-carboxamide]
18 | < 200 nM | < 1 nM | COc1cc(-n2ncc3c(-c4cccc(-c5ccc(CN[C@H]6C[C@@H](O)C6)c(OC)n5)c4Cl)cccc32)cc(OC)c1CN[C@H]1C[C@@H](O)C1 [Example 101, cis-3-(((6-(2-chloro-3-(1-(4-(((cis-3-hydroxycyclobutyl)amino)methyl)-3,5-dimethoxyphenyl)-1H-indazol-4-yl)phenyl)-2-methoxypyridin-3-yl)methyl)amino)cylobutanol]
19 | > 2000 nM | 1 to 10 nM | COc1cc(-n2ncc3c(-c4cccc(-c5ccc(CN6CC[C@@H](O)C6)c(OC)n5)c4Cl)cccc32)cc(OC)c1CNC[C@@H]1CCC(=O)N1 [Example 87, (S)-5-(((4-(4-(2-chloro-3-(5-(((R)-3-hydroxypyrrolidin-1-yl)methyl)-6-methoxypyridin-2-yl)phenyl)-1H-indazol-1-yl)-2,6-dimethoxybenzyl)amino)methyl) pyrrolidin-2-one]
20 | < 200 nM | < 1 nM | COc1cc(-n2ncc3c(-c4cccc(-c5ccc(CN6CC7(CNC(=O)C7)C6)c(OC)n5)c4Cl)cccc32)ncc1CNC[C@@H]1CCC(=O)N1 [Example 108, (S)-2-((6-(2-chloro-3-(1-(4-methoxy-5-((((5-oxopyrrolidin-2-yl)methyl)amino)methyl)pyridin-2-yl)-1H-indazol-4-yl)phenyl)-2-methoxypyridin-3-yl)methyl)-2,6-diazaspiro[3.4]octan-7-one]
21 | 201 to 2000 nM | 1 to 10 nM | COc1cc(-n2ncc3c(-c4cccc(-c5ccc(CNC[C@H]6C[C@@H](O)C6)c(OC)n5)c4Cl)cccc32)cc(OC)c1CNC[C@@H]1CCC(=O)N1 [Example 55]
22 | < 200 nM | < 1 nM | COc1cc(-n2ncc3c(-c4cccc(-c5ccc(CN6CC7(CNC(=O)C7)C6)c(OC)n5)c4Cl)cccc32)ncc1CNCCO [Example 132, 2-((6-(2-chloro-3-(1-(5-(((2-hydroxyethyl)amino)methyl)-4-methoxypyridin-2-yl)-1H-indazol-4-yl)phenyl)-2-methoxypyridin-3-yl)methyl)-2,6-diazaspiro[3.4]octan-7-one]
23 | 201 to 2000 nM | < 1 nM | COc1cc(-n2ncc3c(-c4cccc(-c5ccc(CN6CC(C(C)(C)O)C6)c(OC)n5)c4C)cccc32)cc(OC)c1CN1CC(C(C)(C)O)C1 [Example 136, 2-(1-((6-(3-(1-(4-((3-(2-hydroxypropan-2-yl)azetidin-1-yl)methyl)-3,5-dimethoxyphenyl)-1H-indazol-4-yl)-2-methylphenyl)-2-methoxypyridin-3-yl)methyl)azetidin-3-yl)propan-2-ol]
